Laboratory results as given in patent US20190225650A1, “PEPTIDOMIMETIC MACROCYCLES AND USE THEREOF IN REGULATING HIF1ALPHA” (AILERON THERAPEUTICS, INC., priority 2013, published 2019).
Bridge positions count the residues as written; N and C are the ends. Square brackets hold non-standard residues; d marks the D form. Peptide text beside a SMILES is read from it. R8 = C=CCCCCCC[C@@](C)(N)C(=O)O; S5 = C=CCCC[C@](C)(N)C(=O)O; Nle = CCCC[C@H](N)C(=O)O

Key:
HRE-bla ME-180 cells [1] = test: Cell proliferation assay (viability, MTT, 1% FBS); assay type: cell-based, human
Procedure, shortened: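 ME-180 cells (2×10^4/well) in Opti-MEM with 1% FBS were pretreated 16 h under normoxia (21% O2), vehicle 0.5% DMSO final. Incubation then continued under normoxia or hypoxia (1% O2); viable cells quantified by MTT-type CellTiter 96 assay.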

[2] = biological target: T1, flag-tagged HIF1α (AA 786-826) / His6-tagged p300 (AA 323-423) complex (Homo sapiens, UniProt Q09472); test: HIF1α p300 displacement assay (TR FRET, +CHAPS); assay type: binding; details: read-out: IC50 (nM) (HIF1α_p300 Displacement + CHAPS)
T1 construct: His6-tagged p300 (AA 323-423); made in house; host or cells: E. coli (pETDuet vector)
T1 sequence (Q09472 323-423, one chain of several): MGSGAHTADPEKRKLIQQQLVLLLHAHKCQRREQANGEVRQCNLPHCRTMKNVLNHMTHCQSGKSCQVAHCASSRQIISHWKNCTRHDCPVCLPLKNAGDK
Procedure, shortened: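 The co-expressed flag-HIF1α (786-826)/His6-p300 (323-423) complex, purified from E. coli with 0.1 mM ZnSO4, was used at 300 nM final with competitor peptides for 1 h at room temperature. Buffer was 150 mM NaCl, 20 mM HEPES pH 7.4, 7.5 mM CHAPS and 1 mM DTT. Anti-Flag-K (0.5 μM) and anti-His-D2 (4 nM) were then added for 2 h, and IC50s were fitted from the TR-FRET ratio.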

HRE-bla ME-180 cells [3] = test: Reporter gene assay (HRE-bla ME-180 HIF reporter, GeneBLAzer); assay type: cell-based, human; details: for EC50: 24 hour normoxia
Procedure, shortened: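 A FRET β-lactamase readout of HIF transcription was used. After compound treatment in 0.3% DMSO/media under normoxic conditions, 20 μl of 6× LiveBLAzer-FRET B/G (CCF4-AM) substrate was added. Plates sat 3 hr at room temperature in the dark and were read at 409 Ex/460Em and 409Ex/530Em on a Synergy 2. Inhibition was compared against DMSO vehicle controls, with chetomin as positive control.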

| SMILES | Viability 1% FBS AVG (MTT V3-24 hr Normoxia) (μM) (HRE-bla ME-180 cells [1]) | IC50 [2] [nM] | 18 h Avg % max inhibition at top conc (HIF Rptr-24 hrs normoxia) (μM) (HRE-bla ME-180 cells [3]) | EC50 (HRE-bla ME-180 cells [3]) [µM] |
| --- | --- | --- | --- | --- |
| CCCC[C@H](NC(=O)[C@H](C)NC(=O)[C@]1(C)CCCC=CCCCCCC[C@@](C)(NC(=O)[C@H](CCC(=O)O)NC(=O)[C@H](CC(=O)O)NC(=O)[C@@H](NC(=O)[C@H](Cc2ccccc2)NC(C)=O)[C@@H](C)CC)C(=O)N[C@@H](C(C)C)C(=O)N[C@@H](CC(C)C)C(=O)N[C@@H](CCCC)C(=O)N[C@@H](CO)C(=O)N[C@@H](CC(C)C)C(=O)N[C@@H](C(C)C)C(=O)N1)C(=O)N[C@@H](C)C(=O)N[C@@H](CC(C)C)C(=O)N[C@@H](CC(=O)O)C(=O)N[C@@H](C)C(=O)N[C@H](C(N)=O)[C@@H](C)CC [SP-191] (Ac-FIDE[R8]VL[Nle]SLV[S5]A[Nle]ALDAI-NH2; staple 5-12) | ++++ (≥30: ++++) | 200 to 400 | ++ (≤10 but <25: ++) | > 30 |
| CCCC[C@H](NC(=O)[C@H](Cc1ccccc1)NC(=O)[C@@H](NC(=O)[C@H](CCC(=O)O)NC(=O)[C@H](CCC(=O)O)NC(=O)[C@H](CC(=O)O)NC(=O)[C@@H](NC(C)=O)[C@@H](C)CC)C(C)C)C(=O)N[C@@]1(C)CCCC=CCCC[C@@](C)(C(=O)N[C@@H](CCCC)C(=O)N[C@@H](C)C(=O)N[C@@H](CC(C)C)C(=O)N[C@@H](CC(C)C)C(N)=O)NC(=O)[C@H]([C@@H](C)CC)NC(=O)[C@H](C(C)C)NC(=O)[C@H](CC(C)C)NC1=O [SP-243] (Ac-IDEEVF[Nle][S5]LVI[S5][Nle]ALL-NH2; staple 8-12) | ++++ (≥30: ++++) | 400 to 700 | ++++ (≥50: ++++) | 15 to 30 |
| CCCC[C@H](NC(=O)[C@H](Cc1ccccc1)NC(=O)[C@@H](NC(=O)[C@H](C)NC(=O)[C@H](CCC(N)=O)NC(=O)[C@H](CC(=O)O)NC(=O)[C@@H](NC(=O)[C@H](Cc1ccccc1)NC(C)=O)[C@@H](C)CC)C(C)C)C(=O)N[C@@]1(C)CCCC=CCCC[C@@](C)(C(=O)N[C@@H](Cc2c[nH]cn2)C(=O)N[C@@H](C)C(=O)N[C@@H](CC(C)C)C(=O)N[C@@H](CC(C)C)C(N)=O)NC(=O)[C@H]([C@@H](C)CC)NC(=O)[C@H](C(C)C)NC(=O)[C@H](CC(N)=O)NC1=O [SP-259] (Ac-FIDQAVF[Nle][S5]NVI[S5]HALL-NH2; staple 9-13) | + (<5: +) | > 700 | ++++ (≥50: ++++) | ≤ 5 |
| CCCC[C@H](NC(=O)[C@H](CCC(=O)O)NC(=O)[C@@H](NC(=O)[C@@H](NC(=O)[C@H](CC(C)C)NC(=O)[C@]1(C)CCCC=CCCC[C@](C)(NC(=O)[C@H](CCC(=O)O)NC(=O)[C@H](CC(=O)O)NC(=O)[C@@H](NC(=O)[C@H](Cc2ccccc2)NC(C)=O)[C@@H](C)O)C(=O)N[C@@H](C(C)C)C(=O)N[C@@H](CC(C)C)C(=O)N[C@@H](CCCC)C(=O)N1)C(C)C)[C@@H](C)CC)C(=O)N[C@@H](C)C(=O)N[C@@H](CC(C)C)C(N)=O [SP-153] (Ac-FTDE[S5]VL[Nle][S5]LVIE[Nle]AL-NH2; staple 5-9) | ++++ (≥30: ++++) | 400 to 700 | + (<10: +) | > 30 |
| CCCC[C@H](NC(=O)[C@H](CCC(=O)O)NC(=O)[C@@H](NC(=O)[C@@H](NC(=O)[C@H](CC(N)=O)NC(=O)[C@]1(C)CCCC=CCCC[C@](C)(NC(=O)[C@H](CCC(=O)O)NC(=O)[C@H](CC(=O)O)NC(=O)[C@@H](NC(=O)[C@H](Cc2ccccc2)NC(C)=O)[C@@H](C)CC)C(=O)N[C@@H](C(C)C)C(=O)N[C@@H](CC(C)C)C(=O)N[C@@H](CCCC)C(=O)N1)C(C)C)[C@@H](C)CC)C(=O)N[C@@H](C)C(=O)N[C@@H](CC(C)C)C(N)=O [SP-143] (Ac-FIDE[S5]VL[Nle][S5]NVIE[Nle]AL-NH2; staple 5-9) | ++ (≤5 but <15: ++) | 400 to 700 | ++++ (≥50: ++++) | 5 to 15 |
| CCCC[C@H](NC(=O)[C@H](CCC(=O)O)NC(=O)[C@]1(C)CCCC=CCCCCCC[C@@](C)(NC(=O)[C@H](CCC(=O)O)NC(=O)[C@H](CC(=O)O)NC(=O)[C@@H](NC(=O)[C@H](CC(N)=O)NC(=O)[C@@H](NC(=O)[C@]2(C)CCCC=CCCCCCC[C@@](C)(NC(=O)[C@H](CCC(=O)O)NC(=O)CNC(=O)[C@H](CCC(N)=O)NC(=O)[C@H](CC(C)C)NC(=O)[C@H](CC(C)C)NC(C)=O)C(=O)N[C@@H](CC(C)C)C(=O)N[C@@H](CC(C)C)C(=O)N[C@@H](CCCNC(=N)N)C(=O)N[C@@H](C)C(=O)N[C@@H](CC(C)C)C(=O)N[C@@H](CC(=O)O)C(=O)N2)C(C)C)[C@@H](C)CC)C(=O)N[C@@H](C(C)C)C(=O)N[C@@H](CC(C)C)C(=O)N[C@@H](CCCC)C(=O)N[C@@H](CO)C(=O)N[C@@H](CC(C)C)C(=O)N[C@@H](C(C)C)C(=O)N1)C(=O)N[C@@H](C)C(=O)N[C@@H](CC(C)C)C(N)=O [SP-373] (Ac-LLQGE[R8]LLRALD[S5]VNIDE[R8]VL[Nle]SLV[S5]E[Nle]AL-NH2; staple 6-13, 19-26) | ++++ (≥30: ++++) | 200 to 400 | +++ (≤25 but <50: +++) | > 30 |
| CCCC[C@H](NC(=O)[C@H](CCC(=O)O)NC(=O)[C@@H](NC(=O)[C@@H](NC(=O)[C@H](CC(C)C)NC(=O)[C@]1(C)CCCC=CCCC[C@](C)(NC(=O)[C@H](CCC(=O)O)NC(=O)[C@H](CC(=O)O)NC(=O)[C@@H](NC(=O)[C@H](Cc2ccccc2)NC(C)=O)[C@@H](C)CC)C(=O)N[C@@H](C(C)C)C(=O)N[C@@H](CC(C)C)C(=O)N[C@@H](CCCC)C(=O)N1)C(C)C)[C@@H](C)CC)C(=O)N[C@@H](C)C(=O)N[C@@H](CC(C)C)C(N)=O [SP-111] (Ac-FIDE[S5]VL[Nle][S5]LVIE[Nle]AL-NH2; staple 5-9) | ++++ (≥30: ++++) | 200 to 400 | ++++ (≥50: ++++) | > 30 |
| CCCC[C@H](NC(=O)[C@H](CCC(=O)O)NC(=O)[C@@H](NC(=O)[C@@H](NC(=O)[C@H](CC(C)C)NC(=O)[C@]1(C)CCCC=CCCC[C@](C)(NC(=O)[C@H](CCC(=O)O)NC(=O)[C@H](CC(=O)O)NC(=O)[C@@H](NC(=O)[C@H](Cc2ccccc2)NC(C)=O)[C@@H](C)CC)C(=O)N[C@@H]([C@@H](C)O)C(=O)N[C@@H](CC(C)C)C(=O)N[C@@H](CCCC)C(=O)N1)C(C)C)[C@@H](C)CC)C(=O)N[C@@H](C)C(=O)N[C@@H](CC(C)C)C(N)=O [SP-139] (Ac-FIDE[S5]TL[Nle][S5]LVIE[Nle]AL-NH2; staple 5-9) | ++ (≤5 but <15: ++) | 400 to 700 | +++ (≤25 but <50: +++) | > 30 |
| CC[C@H](C)[C@H](NC(=O)[C@H](CCCNC(=N)N)NC(=O)[C@H](CC(=O)O)NC(=O)[C@H](CC(C)C)NC(=O)[C@H](C)NC(=O)[C@H](CCSC)NC(=O)[C@]1(C)CCCC=CCCC[C@](C)(NC(=O)[C@H](CCSC)NC(=O)[C@H](Cc2ccccc2)NC(=O)[C@@H](NC(=O)[C@H](C)NC(=O)[C@H](CCC(N)=O)NC(=O)[C@H](CC(=O)O)NC(=O)[C@@H](NC(=O)[C@H](Cc2ccccc2)NC(C)=O)[C@@H](C)CC)C(C)C)C(=O)N[C@@H](CC(C)C)C(=O)N[C@@H](C(C)C)C(=O)N[C@@H]([C@@H](C)CC)C(=O)N1)C(N)=O [SP-268] (Ac-FIDQAVFM[S5]LVI[S5]MALDRI-NH2; staple 9-13) | ++++ (≥30: ++++) | > 700 | +++ (≤25 but <50: +++) | > 30 |
